# From the CombiSolv-Exp solvation set (Vermeire and Green 2021)
# Assay: solvent given as SMILES
# [1] = in CCCCCCCCC=CCCCCCCCC(=O)OCC(COC(=O)CCCCCCCC=CCCCCCCCC)OC(=O)CCCCCCCC=CCCCCCCCC
smiles,measurement,setting,value
c1cc2ccc3ccc4ccc5cccc6c(c1)c2c3c4c56,"solvation free energy, 298 K",in O,-8.98 kcal/mol
same,"solvation free energy, 298 K",in O=C1CCCCC1,-19.4 kcal/mol
CCCCCC(=O)OCC,"solvation free energy, 298 K",in O,-2.24 kcal/mol
N#CCc1ccc(C(=O)O)cc1,"solvation free energy, 298 K",in C=CCCCCCCCCCCCCCC,-10.2 kcal/mol
same,"solvation free energy, 298 K",in O,-12.9 kcal/mol
CCCCCCCCCCCCCCCCCCCCCCCCCCC,"solvation free energy, 298 K",in CC(=O)N(C)C,-18.4 kcal/mol
same,"solvation free energy, 298 K",in CN(C)C=O,-18.5 kcal/mol
same,"solvation free energy, 298 K",in O,5.74 kcal/mol
CC(C)COCC(C)C,"solvation free energy, 298 K",in CCCCCCCCCCCCCCCC,-4.72 kcal/mol
same,"solvation free energy, 298 K",in CCCCCCCCO,-4.62 kcal/mol
FC(C(F)(F)F)C(F)(F)F,"solvation free energy, 298 K",in CCCCCCCCO,-1.12 kcal/mol
same,"solvation free energy, 298 K",in CN1CCCC1=O,-0.6 kcal/mol
same,"solvation free energy, 298 K",in O,2.01 kcal/mol
COP(=S)(OC)Oc1ccc([N+](=O)[O-])cc1,"solvation free energy, 298 K",in O,-7.19 kcal/mol
COc1ccc(CCN)cc1,"solvation free energy, 298 K",in C=CCCCCCCC=C,-9.4 kcal/mol
same,"solvation free energy, 298 K",in O,-8.51 kcal/mol
CC(=O)O,"solvation free energy, 298 K",in C=CCCCCCCC=C,-2.71 kcal/mol
same,"solvation free energy, 298 K",in C=CCCCCCCCCCCCCCC,-2.41 kcal/mol
same,"solvation free energy, 298 K",in [2H]O[2H],-6.55 kcal/mol
O=C(O)Cc1ccc(C(=O)O)cc1,"solvation free energy, 298 K",in C=CCCCCCCCCCCCCCC,-10.5 kcal/mol
same,"solvation free energy, 298 K",in O,-16.5 kcal/mol
CC(C)=CCCC(C)CCCC(C)CCCC(C)C (centres undefined),"solvation free energy, 298 K",in O,3.72 kcal/mol
CCCC(=O)CC(=O)CCC,"solvation free energy, 298 K",in O,-4.33 kcal/mol
CCCCCCCCCCCCCCCCCCCCO,"solvation free energy, 298 K",in CC(C)O,-16.2 kcal/mol
same,"solvation free energy, 298 K",in CCCCCCCCCCO,-16.4 kcal/mol
same,"solvation free energy, 298 K",in CCCCCCCCO,-16.4 kcal/mol
same,"solvation free energy, 298 K",in CCCCCCO,-16.5 kcal/mol
c1ccc(N=Nc2ccccc2)cc1,"solvation free energy, 298 K",[1],-11.2 kcal/mol
same,"solvation free energy, 298 K",in O,-4.82 kcal/mol
Clc1ccc(-c2ccccc2Cl)cc1,"solvation free energy, 298 K",in CCCCCCCCO,-10 kcal/mol
same,"solvation free energy, 298 K",in O,-2.58 kcal/mol
CCNCc1ccc(C)cc1,"solvation free energy, 298 K",in O,-6.02 kcal/mol
Cc1ccc2cc(C)ccc2c1,"solvation free energy, 298 K",[1],-8.29 kcal/mol
same,"solvation free energy, 298 K",in CCCCCCCO,-8.28 kcal/mol
same,"solvation free energy, 298 K",in CCCCCCO,-8.36 kcal/mol
same,"solvation free energy, 298 K",in CCCCCO,-8.49 kcal/mol
same,"solvation free energy, 298 K",in CCCCO,-8.59 kcal/mol
same,"solvation free energy, 298 K",in CCO,-8.85 kcal/mol
same,"solvation free energy, 298 K",in O,-2.37 kcal/mol
c1ccc2c(c1)CCCC2,"solvation free energy, 298 K",in CCC(C)=O,-7.43 kcal/mol
same,"solvation free energy, 298 K",in CCCCCCC,-7.03 kcal/mol
same,"solvation free energy, 298 K",in CCO,-6.29 kcal/mol
same,"solvation free energy, 298 K",in O=Cc1ccco1,-7.02 kcal/mol
same,"solvation free energy, 298 K",in OCCO,-4.97 kcal/mol
same,"solvation free energy, 298 K",in OCCOCCO,-5.9 kcal/mol
same,"solvation free energy, 298 K",in OCCOCCOCCO,-6.07 kcal/mol
CCCCCC1CCCC1,"solvation free energy, 298 K",in O,2.55 kcal/mol
NCCO,"solvation free energy, 298 K",in CCCCCCC,-2.5 kcal/mol
Cc1ccccc1C(=O)N(O)c1ccccc1,"solvation free energy, 298 K",in O,-11.5 kcal/mol
Clc1ccc(-c2ccc(Cl)cc2)cc1,"solvation free energy, 298 K",[1],-10.9 kcal/mol
same,"solvation free energy, 298 K",in CCCCCCCCO,-10.7 kcal/mol
same,"solvation free energy, 298 K",in O,-2.91 kcal/mol
ClCCCCCl,"solvation free energy, 298 K",in CC(C)=O,-6.56 kcal/mol
same,"solvation free energy, 298 K",in O,-2.32 kcal/mol
